IC50 data for 22 molecules are collected here from BindingDB's records for patent US20250034169 (Sunshine Lake Pharma Co., 2025).

Test [1] concerns the target GTPase KRas (G12D) and Son of Sevenless Homolog 1 (SOS) (Homo sapiens, UniProt P01116+Q07889, G12D). As to the kind of experiment: KRAS G12D/SOS1 Binding Assay. The procedure:
(§1) (1) Compound was prepared with DMSO, and diluted by 3-fold gradient with DMSO.(2) 0.1 μl of serial dilutions of the compound was added to a 384-well plate.(3) 5 μl of Tag2-KRASG12D>P at a specific concentration was added to the 384-well plate, and the plate was centrifuged at 1000 rpm for 1 min.(4) Then 5 μl of Tag1-SOS1 at a specific concentration was added to the 384-well plate, and the plate was centrifuged at 1000 rpm for 1 min.(5) The plate was incubated at 25° C. for 15 min.(6) 10 μl of the mixture of anti-Tag1-Tb3+ and anti-Tag2-XL665 was added to the 384-well plate.(7) The plate was centrifuged at 1000 rpm for 1 min and incubated at 4° C. for 3 h.(8) The 665/615 nm ratio was read by a microplate reader.(9) Data analysis: The log value of the compound concentration was taken as the abscissa, and the 665/615 nm ratio was used as the ordinate, the data were analyzed by GraphPad Prism 8.0 software.

Test [2] deals with GTPase KRas [G12D]/RAF proto-oncogene serine/threonine-protein kinase (Homo sapiens, UniProt P01116+P04049, G12D). As to the kind of experiment: KRAS G12D/cRAF Binding Assay. The procedure: as §1, with “Tag1-cRAF” for “Tag1-SOS1”

Regarding `C#Cc1c(F)ccc2cc(O)cc(-c3nc(OCCC(F)(F)F)c4c(N5CC6CCC(C6)C5)nc(OC[C@@]56CCCN5C[C@H](F)C6)nc4c3F)c12` [US20250034169, Compound 9], the IC50 in test [1] came to 12.6 nM; in test [2], 8.8 nM.
Regarding `C#Cc1c(F)ccc2cc(O)cc(-c3nc(OCCOC)c4c(N5CC6CCC(C6)C5)nc(OC[C@@]56CCCN5C[C@H](F)C6)nc4c3F)c12` [US20250034169, Compound 10], the IC50 in test [1] was 13.9 nM; in test [2], 8.7 nM.
Turning to `[2H]C([2H])([2H])c1nc(-c2cc(O)cc3ccc(F)c(C#C)c23)c(F)c2nc(OC[C@@]34CCCN3C[C@H](F)C4)nc(N3CC4CCC(C4)C3)c12` [US20250034169, Compound 11], the half-maximal inhibitory concentration (IC50) came to 19.8 nM in test [1] and 9.2 nM in test [2].
Take `C#Cc1c(F)ccc2cc(O)cc(-c3nc(OCC)c4c(N5CC6CCC(C6)C5)nc(OC[C@@]56CCCN5C[C@H](F)C6)nc4c3F)c12` [US20250034169, Compound 12]: the IC50 was 10.3 nM in test [1] and 9.7 nM in test [2].
With `C#Cc1c(F)ccc2cc(O)cc(-c3nc(C(=O)OCC)c4c(N5CC6CCC(C6)C5)nc(OC[C@@]56CCCN5C[C@H](F)C6)nc4c3F)c12` [US20250034169, Compound 13], the values for the IC50 in test [1] and in test [2] were 11.3 nM and 5.1 nM, respectively.
For the molecule `C#Cc1c(F)ccc2cc(O)cc(-c3nc(C#CCC)c4c(N5CC6CCC(C6)C5)nc(OC[C@@]56CCCN5C[C@H](F)C6)nc4c3F)c12` [US20250034169, Compound 24], the IC50 worked out at 15.1 nM in test [1] and 13.6 nM in test [2].
For the molecule `C#Cc1c(F)ccc2cc(O)cc(-c3nc(C#CCOC)c4c(N5CC6CCC(C6)C5)nc(OC[C@@]56CCCN5C[C@H](F)C6)nc4c3F)c12` [US20250034169, Compound 25], the values for the IC50 in test [1] and in test [2] were 16.8 nM and 15 nM, respectively.
For the molecule `C#Cc1c(F)ccc2cc(O)cc(-c3nc(C#CC4CCCC4)c4c(N5CC6CCC(C6)C5)nc(OC[C@@]56CCCN5C[C@H](F)C6)nc4c3F)c12` [US20250034169, Compound 28], the IC50 in test [1] was 11.5 nM; in test [2], 11.1 nM.
Take `C#Cc1c(F)ccc2cc(O)cc(-c3nc(C#CCC(C)C)c4c(N5CC6CCC(C6)C5)nc(OC[C@@]56CCCN5C[C@H](F)C6)nc4c3F)c12` [US20250034169, Compound 29]: the figures for the IC50 in test [1] and in test [2] were 15.9 nM and 14.7 nM, respectively.
Take `C#Cc1c(F)ccc2cc(O)cc(-c3nc(C#CCCC(C)C)c4c(N5CC6CCC(C6)C5)nc(OC[C@@]56CCCN5C[C@H](F)C6)nc4c3F)c12` [US20250034169, Compound 30]: the IC50 was 13.4 nM in test [1] and 8.8 nM in test [2].
In the same order, the values of `C#Cc1c(F)ccc2cc(O)cc(-c3nc(C#CCCC#N)c4c(N5CC6CCC(C6)C5)nc(OC[C@@]56CCCN5C[C@H](F)C6)nc4c3F)c12` [US20250034169, Compound 31] are 34.6 nM and 24.6 nM.
`C#Cc1c(F)ccc2cc(O)cc(-c3nc(C#C)c4c(N5CC6CC(C6)C5)nc(OC[C@@]56CCCN5C[C@H](F)C6)nc4c3F)c12` [US20250034169, Compound 41]: the results for the IC50 in test [1] and in test [2] were 31.4 nM and 22 nM, respectively.
Take `C#Cc1c(F)ccc2cc(O)cc(-c3nc(C#C)c4c(N5CCC[C@@H](C)C5)nc(OC[C@@]56CCCN5C[C@H](F)C6)nc4c3F)c12` [US20250034169, Compound 43]: the IC50 turned out to be 24.1 nM in test [1] and 16.3 nM in test [2].
In the same order, the values of `C#Cc1c(F)ccc2cc(O)cc(-c3nc(C#C)c4c(N5C[C@H]6CC[C@@H]5C6)nc(OC[C@@]56CCCN5C[C@H](F)C6)nc4c3F)c12` [US20250034169, Compound 44] are 29.6 nM and 15.2 nM.
In the same order, the values of `C#Cc1c(F)ccc2cc(O)cc(-c3nc(C#C)c4c(N5CC6CCC(C6)C5)nc(OC[C@]56CCCN5C[C@H](F)C6)nc4c3F)c12` [US20250034169, Compound 49] are 15.7 nM and 6.9 nM.
As to `C#Cc1c(F)ccc2cc(O)cc(-c3nc(C#C)c4c(N5CC6CCC(C6)C5)nc(OC[C@H]5CCCN5C)nc4c3F)c12` [US20250034169, Compound 50], the IC50 stood at 36.2 nM in test [1] and 19.1 nM in test [2].
With `C#Cc1c(F)ccc2cc(O)cc(-c3nc(C#C)c4c(N5CC6CCC(C6)C5)nc(OC[C@@H]5CCCN5C)nc4c3F)c12` [US20250034169, Compound 51], the IC50 in test [1] was 20.8 nM; in test [2] it was 11.1 nM.
For the molecule `C#Cc1c(F)ccc2cc(O)cc(-c3nc(C#C)c4c(N5C6CCCC5CC6)nc(OCC5(CN(C)C)CC5)nc4c3F)c12` [US20250034169, Compound 52], the IC50 in test [1] was 15.2 nM; in test [2], 7.7 nM.
On to `C#Cc1c(F)ccc2cc(O)cc(-c3nc(C#C)c4c(N5C6CCCC5CC6)nc(OCC5(CN6CCCCC6)CC5)nc4c3F)c12` [US20250034169, Compound 53], for which the IC50 amounted to 14.6 nM in test [1] and 4.3 nM in test [2].
As to `C#Cc1c(F)ccc2cc(O)cc(-c3nc(C#C)c4c(N5CC6CCC(C6)C5)nc(OCCC(F)(F)F)nc4c3F)c12` [US20250034169, Compound 55], the IC50 in test [1] is 14.8 nM; in test [2] it was 9.8 nM.
On to `C#Cc1c(F)ccc2cc(O)cc(-c3nc(C#C)c4c(N5CC6CCC(C6)C5)nc(OCC5CCCC5)nc4c3F)c12` [US20250034169, Compound 56], for which the results for the IC50 in test [1] and in test [2] were 15.7 nM and 18.5 nM, respectively.
In the case of `C#Cc1nc(-c2cc(O)cc3ccc(F)c(CC)c23)c(F)c2nc(OC[C@@]34CCCN3C[C@H](F)C4)nc(N3CC4CCC(C4)C3)c12` [US20250034169, Compound 65], the values for the IC50 in test [1] and in test [2] were 18.5 nM and 9.9 nM, respectively.
